These results are taken from US9040545B2, “Heterocyclyl pyrazolopyrimidine analogues as selective JAK inhibitors” (Cellzome Limited, priority 2010, dated 2015).

One assay has as its target T1, Aurora A (Homo sapiens, UniProt O14965).
T1 construct: cell lysates from Jurkat cells (ATCC TIB-152) used; endogenous in cells; host or cells: Jurkat cells (ATCC TIB-152), treated with pervanadate
T1 sequence (O14965 1-403): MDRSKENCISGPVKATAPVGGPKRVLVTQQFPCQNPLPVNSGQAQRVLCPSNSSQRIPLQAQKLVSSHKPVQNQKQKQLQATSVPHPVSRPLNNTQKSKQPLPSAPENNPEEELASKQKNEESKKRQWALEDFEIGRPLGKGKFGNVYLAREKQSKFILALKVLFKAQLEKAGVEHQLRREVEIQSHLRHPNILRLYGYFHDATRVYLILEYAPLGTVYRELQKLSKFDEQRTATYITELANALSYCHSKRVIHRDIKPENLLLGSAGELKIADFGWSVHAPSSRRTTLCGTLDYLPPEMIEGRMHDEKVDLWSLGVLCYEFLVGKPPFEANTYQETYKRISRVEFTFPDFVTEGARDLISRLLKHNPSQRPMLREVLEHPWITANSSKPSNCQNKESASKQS
Nature of the assay: Kinobeads assay, Aurora A. In kind it is binding. Particulars: for IC50: lysate of pervanadate-treated Jurkat cells, read-out: Inhibition values (IC50) Aur A.

The next assay has as its target T2, Aurora B (Homo sapiens, UniProt Q96GD4).
T2 construct: cell lysates from Jurkat cells (ATCC TIB-152) used; endogenous in cells; host or cells: Jurkat cells (ATCC TIB-152), treated with pervanadate
In words: Kinobeads assay, Aurora B. The format is binding. The conditions noted are these: for IC50: lysate of pervanadate-treated Jurkat cells, read-out: Inhibition values (IC50) Aur B.

Bounds are passed on as bounds.

T2 sequence (Q96GD4 whole entry): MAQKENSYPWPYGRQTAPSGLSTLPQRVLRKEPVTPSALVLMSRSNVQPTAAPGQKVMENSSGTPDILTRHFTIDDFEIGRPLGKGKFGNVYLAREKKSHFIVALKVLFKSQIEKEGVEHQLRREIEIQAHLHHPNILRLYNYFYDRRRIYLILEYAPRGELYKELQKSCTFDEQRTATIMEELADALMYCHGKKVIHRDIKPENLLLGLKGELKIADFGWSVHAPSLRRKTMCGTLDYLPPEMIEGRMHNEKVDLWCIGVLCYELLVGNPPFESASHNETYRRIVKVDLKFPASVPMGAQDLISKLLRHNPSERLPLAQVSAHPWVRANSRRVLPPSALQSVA

Regarding `O=C(c1cc(F)c(F)c(Cn2ncc3cnc(Nc4cnn(CCO)c4)nc32)c1F)N1CCOCC1` [Example 111, morpholino(2,4,5-trifluoro-3-((6-((1-(2-hydroxyethyl)-1H-pyrazol-4-yl)amino)-1H-pyrazolo[3,4-d]pyrimidin-1-yl)methyl)phenyl)methanone], on Aurora A, the “JAK3/AurA Fold Selectivity” value is reported as 10-50 Fold and the IC50 was in the range of 0.1 to 1 µM. Also, at Aurora B, the “JAK3/AurB Fold Selectivity” value is 10-50 Fold and the IC50 fell in the range of 0.1 to 1 µM.

With `Cn1cc(Nc2ncc3cnn(Cc4cccc(N5CC6(COC6)C5)c4)c3n2)cn1` [Example 89, 1-(3-(2-oxa-6-azaspiro[3.3]heptan-6-yl)benzyl)-N-(1-methyl-1H-pyrazol-4-yl)-1H-pyrazolo[3,4-d]pyrimidin-6-amine], on Aurora A, the “JAK3/AurA Fold Selectivity” value is 10-50 Fold and the IC50 fell in the range of 0.1 to 1 µM. Besides, on Aurora B, the “JAK3/AurB Fold Selectivity” value is greater than 50 Fold and the IC50 was in the range of 1 to 10 µM.

As to `Cn1cc(Nc2ncc3cnn(Cc4cccc(N5CC6(COC6)C5)c4F)c3n2)cn1` [Example 91, 1-(2-fluoro-3-(2-oxa-6-azaspiro[3.3]heptan-6-yl)benzyl)-N-(1-methyl-1H-pyrazol-4-yl)-1H-pyrazolo[3,4-d]pyrimidin-6-amine], the IC50 on Aurora A was no less than 10 µM. On Aurora B, the “JAK3/AurB Fold Selectivity” value was greater than 50 Fold and the IC50 lay in the range of 1 to 10 µM.

Take `Cn1cc(Nc2ncc3cnn(Cc4c(F)c(F)cc(N5CCOCC5)c4F)c3n2)cn1` [Example 17, N-(1-Methyl-1H-pyrazol-4-yl)-1-(2,3,6-trifluoro-5-morpholinobenzyl)-1H-pyrazolo[3,4-d]pyrimidin-6-amine]: on Aurora A, the “JAK3/AurA Fold Selectivity” value is given as greater than 50 Fold and the IC50 lay in the range of 1 to 10 µM. On Aurora B, the “JAK3/AurB Fold Selectivity” value was 10-50 Fold and the IC50 lay in the range of 0.1 to 1 µM.

On to `CCOC(=O)C1CCCN(c2cccc(Cn3ncc4cnc(Nc5cnn(C)c5)nc43)c2)C1` (centres unmarked) [Example 13, Ethyl 1-(3-((6-((1-methyl-1H-pyrazol-4-yl)amino)-1H-pyrazolo[3,4-d]pyrimidin-1-yl)methyl)phenyl)piperidine-3-carboxylate], for which, at Aurora A, the “JAK3/AurA Fold Selectivity” value is recorded as 3-10 Fold and the IC50 fell in the range of 1 to 10 µM. On Aurora B, the “JAK3/AurB Fold Selectivity” value was 10-50 Fold and the IC50 was no less than 10 µM.

In the case of `OCCn1cc(Nc2ncc3cnn(Cc4cccc(N5CCOCC5)c4F)c3n2)cn1` [Example 39, 2-(4-((1-(2-Fluoro-3-morpholinobenzyl)-1H-pyrazolo[3,4-d]pyrimidin-6-yl)amino)-1H-pyrazol-1-yl)ethanol], on Aurora A, the “JAK3/AurA Fold Selectivity” value was 10-50 Fold and the IC50 was 0.1 to 1 µM. Also, on Aurora B, the “JAK3/AurB Fold Selectivity” value is recorded as 10-50 Fold and the IC50 is 0.1 to 1 µM.

As to `Cn1cc(Nc2ncc3cnn(Cc4cccc(N5CCC(=O)CC5)c4)c3n2)cn1` [Example 108, 1-(3-((6-((1-methyl-1H-pyrazol-4-yl)amino)-1H-pyrazolo[3,4-d]pyrimidin-1-yl)methyl)phenyl)piperidin-4-one], on Aurora A, the “JAK3/AurA Fold Selectivity” value is 3-10 Fold and the IC50 is 0.1 to 1 µM. On Aurora B, the “JAK3/AurB Fold Selectivity” value was 10-50 Fold and the IC50 lay in the range of 1 to 10 µM.

For `CNC(=O)CCn1cc(Nc2ncc3cnn(Cc4cccc(N5CCOCC5)c4)c3n2)cn1` [Example 24, N-Methyl-3-(4-((1-(3-morpholinobenzyl)-1H-pyrazolo[3,4-d]pyrimidin-6-yl)amino)-1H-pyrazol-1-yl)propanamide], on Aurora A, the “JAK3/AurA Fold Selectivity” value is given as 10-50 Fold and the IC50 is 0.1 to 1 µM. For the same compound, at Aurora B, the “JAK3/AurB Fold Selectivity” value is given as greater than 50 Fold and the IC50 lay in the range of 1 to 10 µM.

On to `Cn1cc(Nc2ncc3cnn(Cc4cccc(N5CCOCC5=O)c4F)c3n2)cn1` [Example 40, 4-(2-Fluoro-3-((6-((1-methyl-1H-pyrazol-4-yl)amino)-1H-pyrazolo[3,4-d]pyrimidin-1-yl)methyl)phenyl)morpholin-3-one], for which, at Aurora A, the “JAK3/AurA Fold Selectivity” value is 10-50 Fold and the IC50 is 0.1 to 1 µM. For the same compound, at Aurora B, the “JAK3/AurB Fold Selectivity” value was 10-50 Fold and the IC50 lay within 0.1 to 1 µM.

On to `CN(C)CC(O)Cn1cc(Nc2ncc3cnn(Cc4cccc(N5CCOCC5)c4)c3n2)cn1` (centres unmarked) [Example 33, 1-(Dimethylamino)-3-(4-((1-(3-morpholinobenzyl)-1H-pyrazolo[3,4-d]pyrimidin-6-yl)amino)-1H-pyrazol-1-yl)propan-2-ol], for which, on Aurora A, the “JAK3/AurA Fold Selectivity” value was greater than 50 Fold and the concentration for half-maximal inhibition (IC50) lay in the range of 1 to 10 µM. Also, on Aurora B, the “JAK3/AurB Fold Selectivity” value is 10-50 Fold and the IC50 lay within 1 to 10 µM.

Take `Cn1cc(Nc2ncc3cnn(Cc4cc(F)cc(N5CCNCC5)c4F)c3n2)cn1` [Example 95, 1-(2,5-difluoro-3-(piperazin-1-yl)benzyl)-N-(1-methyl-1H-pyrazol-4-yl)-1H-pyrazolo[3,4-d]pyrimidin-6-amine]: at Aurora A, the “JAK3/AurA Fold Selectivity” value is reported as 10-50 Fold and the IC50 lay in the range of 0.1 to 1 µM. On Aurora B, the “JAK3/AurB Fold Selectivity” value was 10-50 Fold and the IC50 lay within 0.1 to 1 µM.

For `NCCCn1cc(Nc2ncc3cnn(Cc4cccc(N5CCOCC5)c4)c3n2)cn1` [Example 34, N-(1-(3-Aminopropyl)-1H-pyrazol-4-yl)-1-(3-morpholinobenzyl)-1H-pyrazolo[3,4-d]pyrimidin-6-amine], at Aurora A, the “JAK3/AurA Fold Selectivity” value is given as 10-50 Fold and the IC50 fell in the range of 0.1 to 1 µM. In addition, on Aurora B, the “JAK3/AurB Fold Selectivity” value is greater than 50 Fold and the IC50 was 1 to 10 µM.

Take `N#CCCn1cc(Nc2ncc3cnn(Cc4cc(F)cc(N5CCOCC5=O)c4)c3n2)cn1` [Example 107, 3-(4-((1-(3-fluoro-5-(3-oxomorpholino)benzyl)-1H-pyrazolo[3,4-d]pyrimidin-6-yl)amino)-1H-pyrazol-1-yl)propanenitrile]: on Aurora A, the “JAK3/AurA Fold Selectivity” value is recorded as 3-10 Fold and the IC50 was less than 0.1 µM. For the same compound, at Aurora B, the “JAK3/AurB Fold Selectivity” value is 10-50 Fold and the IC50 fell in the range of 0.1 to 1 µM.

With `C[C@H]1COCCN1c1cccc(Cn2ncc3cnc(Nc4cnn(C)c4)nc32)c1` [Example 112, (S)-N-(1-methyl-1H-pyrazol-4-yl)-1-(3-(3-methylmorpholino)benzyl)-1H-pyrazolo[3,4-d]pyrimidin-6-amine], at Aurora A, the “JAK3/AurA Fold Selectivity” value is reported as 10-50 Fold and the IC50 lay in the range of 0.1 to 1 µM. On Aurora B, the “JAK3/AurB Fold Selectivity” value was greater than 50 Fold and the IC50 is 1 to 10 µM.

For `OCCn1cc(Nc2ncc3cnn(Cc4cc(F)cc(N5CCNCC5)c4F)c3n2)cn1` [Example 96, 2-(4-((1-(2,5-difluoro-3-(piperazin-1-yl)benzyl)-1H-pyrazolo[3,4-d]pyrimidin-6-yl)amino)-1H-pyrazol-1-yl)ethanol], on Aurora A, the “JAK3/AurA Fold Selectivity” value was greater than 50 Fold and the IC50 is no less than 10 µM. Moreover, at Aurora B, the “JAK3/AurB Fold Selectivity” value was greater than 50 Fold and the 50% inhibitory concentration (IC50) is no less than 10 µM.

Turning to `Cn1cc(Nc2ncc3cnn(Cc4c(F)c(F)cc(C(=O)N5CCOCC5)c4F)c3n2)cn1` [Example 110, morpholino(2,4,5-trifluoro-3-((6-((1-methyl-1H-pyrazol-4-yl)amino)-1H-pyrazolo[3,4-d]pyrimidin-1-yl)methyl)phenyl)methanone], at Aurora A, the “JAK3/AurA Fold Selectivity” value is greater than 50 Fold and the concentration for half-maximal inhibition (IC50) was in the range of 1 to 10 µM. Moreover, at Aurora B, the “JAK3/AurB Fold Selectivity” value is given as 3-10 Fold and the 50% inhibitory concentration (IC50) lay within 0.1 to 1 µM.

`Cn1cc(Nc2ncc3cnn(Cc4cccc(N5CCNCC5=O)c4)c3n2)cn1` [Example 36, 1-(3-((6-((1-Methyl-1H-pyrazol-4-yl)amino)-1H-pyrazolo[3,4-d]pyrimidin-1-yl)methyl)phenyl)piperazin-2-one]: at Aurora A, the “JAK3/AurA Fold Selectivity” value is given as 10-50 Fold and the IC50 was 0.1 to 1 µM. Moreover, on Aurora B, the “JAK3/AurB Fold Selectivity” value is given as 10-50 Fold and the IC50 lay in the range of 1 to 10 µM.

With `Cn1cc(Nc2ncc3cnn(Cc4cccc(C5CCOCC5)c4)c3n2)cn1` [Example 9, N-(1-Methyl-1H-pyrazol-4-yl)-1-(3-(tetrahydro-2H-pyran-4-yl)benzyl)-1H-pyrazolo[3,4-d]pyrimidin-6-amine], on Aurora A, the “JAK3/AurA Fold Selectivity” value is listed as 10-50 Fold and the 50% inhibitory concentration (IC50) was 0.1 to 1 µM. At Aurora B, the “JAK3/AurB Fold Selectivity” value is reported as 10-50 Fold and the IC50 fell in the range of 0.1 to 1 µM.

Take `Cn1cc(Nc2ncc3cnn(Cc4cccc(N5CCCCC5)c4)c3n2)cn1` [Example 8, N-(1-Methyl-1H-pyrazol-4-yl)-1-(3-(piperidin-1-yl)benzyl)-1H-pyrazolo[3,4-d]pyrimidin-6-amine]: on Aurora A, the “JAK3/AurA Fold Selectivity” value is 10-50 Fold and the IC50 lay in the range of 1 to 10 µM. In addition, at Aurora B, the “JAK3/AurB Fold Selectivity” value is 10-50 Fold and the IC50 lay within 1 to 10 µM.

In the case of `NC(=O)CCn1cc(Nc2ncc3cnn(Cc4cccc(N5CCOCC5)c4)c3n2)cn1` [Example 14, 3-(4-((1-(3-Morpholinobenzyl)-1H-pyrazolo[3,4-d]pyrimidin-6-yl)amino)-1H-pyrazol-1-yl)propanamide], on Aurora A, the “JAK3/AurA Fold Selectivity” value was 10-50 Fold and the IC50 was 0.1 to 1 µM. For the same compound, at Aurora B, the “JAK3/AurB Fold Selectivity” value is 10-50 Fold and the IC50 fell in the range of 0.1 to 1 µM.

As to `OCCn1cc(Nc2ncc3cnn(Cc4cc(F)cc(N5CCNCC5)c4)c3n2)cn1` [Example 93, 2-(4-((1-(3-fluoro-5-(piperazin-1-yl)benzyl)-1H-pyrazolo[3,4-d]pyrimidin-6-yl)amino)-1H-pyrazol-1-yl)ethanol], on Aurora A, the “JAK3/AurA Fold Selectivity” value is on record as 10-50 Fold and the IC50 is 0.1 to 1 µM. In addition, on Aurora B, the “JAK3/AurB Fold Selectivity” value is on record as 10-50 Fold and the IC50 lay in the range of 0.1 to 1 µM.
